From publication PMC6582339 (2019)

How the values were obtained:
[1] = system: OBAwt-I6 (DNA, aptamer, inosine at 6) GGGGTGAAACGGGTCCCG; assay: inosine substitution (Figure S1); conditions: 10 mM MgCl2; 10 mM Na2HPO4/KH2PO4; pH 7.4
[2] = system: OBAwt (DNA, aptamer) GGGGTGAAACGGGTCCCG; assay: fluorescence polarization (OTA intrinsic fluorescence); conditions: 10 mM MgCl2; 10 mM Na2HPO4/KH2PO4; pH 7.4, room temperature, 500 nM OTA titrated with aptamer
[3] = system: OBAwt-I3 (DNA, aptamer, inosine at 3) GGGGTGAAACGGGTCCCG; assay: inosine substitution (Figure S1); conditions: 10 mM MgCl2; 10 mM Na2HPO4/KH2PO4; pH 7.4
[4] = system: OBA1 (DNA, aptamer) CGGGGTGAAACGGGTCCCG; assay: fluorescence polarization (OTA intrinsic fluorescence); conditions: 10 mM MgCl2; 10 mM Na2HPO4/KH2PO4; pH 7.4, room temperature, 500 nM OTA titrated with aptamer
[5] = system: OBAwt-I11 (DNA, aptamer, inosine at 11) GGGGTGAAACGGGTCCCG; assay: inosine substitution (Figure S1); conditions: 10 mM MgCl2; 10 mM Na2HPO4/KH2PO4; pH 7.4
[6] = system: OBA2 (DNA, aptamer) GGGGCGAAGCGGGTCCCG; assay: fluorescence polarization (OTA intrinsic fluorescence); conditions: 10 mM MgCl2; 10 mM Na2HPO4/KH2PO4; pH 7.4, room temperature, 500 nM OTA titrated with aptamer
[7] = system: OBA5 (DNA, aptamer) CCGGGGCGAAGCGGGTCCCGG; assay: as above; conditions: 10 mM MgCl2; 10 mM Na2HPO4/KH2PO4; pH 7.4, room temperature, 500 nM OTA titrated with aptamer
[8] = system: OBAwt-I12 (DNA, aptamer, inosine at 12) GGGGTGAAACGGGTCCCG; assay: inosine substitution (Figure S1); conditions: 10 mM MgCl2; 10 mM Na2HPO4/KH2PO4; pH 7.4
[9] = system: OBAwt-I4 (DNA, aptamer, inosine at 4) GGGGTGAAACGGGTCCCG; assay: inosine substitution (Figure S1); conditions: 10 mM MgCl2; 10 mM Na2HPO4/KH2PO4; pH 7.4
[10] = system: OBAwt-I1 (DNA, aptamer, inosine at 1) GGGGTGAAACGGGTCCCG; assay: inosine substitution (Figure S1); conditions: 10 mM MgCl2; 10 mM Na2HPO4/KH2PO4; pH 7.4
[11] = system: OBA3 (DNA, aptamer) CGGGGCGAAGCGGGTCCCG; assay: fluorescence polarization (OTA intrinsic fluorescence); conditions: 10 mM MgCl2; 10 mM Na2HPO4/KH2PO4; pH 7.4, room temperature, 500 nM OTA titrated with aptamer
[12] = system: OBAwt-I13 (DNA, aptamer, inosine at 13) GGGGTGAAACGGGTCCCG; assay: inosine substitution (Figure S1); conditions: 10 mM MgCl2; 10 mM Na2HPO4/KH2PO4; pH 7.4
[13] = system: OBA3 (DNA, aptamer) CGGGGCGAAGCGGGTCCCG; assay: solution NMR structure; conditions: 10 mM MgCl2; 10 mM Na2HPO4/KH2PO4; pH 7.4, 288-310 K
[14] = system: OBAwt-I2 (DNA, aptamer, inosine at 2) GGGGTGAAACGGGTCCCG; assay: inosine substitution (Figure S1); conditions: 10 mM MgCl2; 10 mM Na2HPO4/KH2PO4; pH 7.4
[15] = system: OBA4 (DNA, aptamer) GGGGTGAAACGGTCCCG; assay: not stated for this variant (Figure S2); conditions: 10 mM MgCl2; 10 mM Na2HPO4/KH2PO4; printed NB (no binding); pH 7.4
[16] = system: OBA6 (DNA, aptamer) GCGGGGCGAAGCGGGTCCCGC; assay: fluorescence polarization (OTA intrinsic fluorescence); conditions: 10 mM MgCl2; 10 mM Na2HPO4/KH2PO4; pH 7.4, room temperature, 500 nM OTA titrated with aptamer
[17] = system: OBA1 (DNA, aptamer) CGGGGTGAAACGGGTCCCG; assay: 1H NMR imino spectra; conditions: 10 mM MgCl2; 10 mM Na2HPO4/KH2PO4; pH 7.4, 2 equivalents of OTB
[18] = system: OBAwt (DNA, aptamer) GGGGTGAAACGGGTCCCG; assay: 1H NMR imino titration; conditions: 10 mM Mg2+; 10 mM Na2HPO4/KH2PO4; pH 7.4, 288 K, 0.1 mM aptamer
[19] = system: OBA2 (DNA, aptamer) GGGGCGAAGCGGGTCCCG; assay: 1H NMR imino spectra; conditions: 10 mM MgCl2; 10 mM Na2HPO4/KH2PO4; pH 7.4, 2 equivalents of OTB
[20] = system: OBA3 (DNA, aptamer) CGGGGCGAAGCGGGTCCCG; assay: 1H NMR imino spectra; conditions: 10 mM MgCl2; 10 mM Na2HPO4/KH2PO4; pH 7.4, 2 equivalents of OTB

Row | binding [1] | K d [2] [µM] | binding [3] | K d [4] [µM] | binding [5] | K d [6] [µM] | K d [7] [µM] | binding [8] | binding [9] | binding [10] | K d [11] [µM] | binding [12] | binding [13] | binding [14] | binding [15] | K d [16] [µM] | binding [17] | binding [18] | binding [19] | binding [20] | Compound
1 | no | 81 ± 2 | no | 5.9 ± 0.1 | no | 26.2 ± 0.4 | 1.9 ± 0.1 | yes | no | no | 1.4 ± 0.1 | no | yes | no | no | 2.4 ± 0.1 |  |  |  |  | C[C@@H]1Cc2c(Cl)cc(C(=O)N[C@@H](Cc3ccccc3)C(=O)O)c(O)c2C(=O)O1
2 |  |  |  |  |  |  |  |  |  |  |  |  |  |  |  |  | weak | no | weak | weak | C[C@@H]1Cc2ccc(C(=O)N[C@@H](Cc3ccccc3)C(=O)O)c(O)c2C(=O)O1
